# In US6013667A, “Benzenesulfonylamine compounds, process for preparing them and pharmaceutical compositions” (Adir Et Compagnie, priority 1997, dated 2000):
# How the values were obtained:
# Rabbit saphene vein = assay: Non-endothelium-dependent relaxations in rabbit saphene vein; settings: for IC50: Oryctolagus cuniculus, rabbit saphene vein, contraction with KCl (60 mM), read-out: 50% effective relaxant concentration (IC50)
# Protocol: (§1) New Zealand rabbits (2.5 kg) are exsanguinated under anesthesia (pentobarbital, 30 mg/kg) and the saphene veins are rapidly removed and cut into 3-mm rings. These rings are mounted between two hooks in tanks thermostatically adjusted to 37° C., containing physiological saline (composition in mM: 118 NaCl; 25 NaHCO3; 10 glucose; 4.7 KCl; 1.25 CaCl2; 1.19 MgSO4; 1.14 KHPO4).
# The physiological saline is bubbled with a mixture of 95% O2 /5% CO2. The lower hook constitutes the fixed point whereas the upper hook is connected to an isometric force sensor. The tissues are placed under a base tension of 1 gram. The pharmacological substances studied are prepared immediately before use. The drugs are dissolved in water or in dimethyl sulfoxide.
# This EC50 is calculated routinely in the following way: the tension values are first converted into percentages relative to the maximum effect and these percentages are then plotted on a graph with the percentages on the Y-axis and the log (concentration) values on the X-axis. A linear regression is then carried out on the points between 10% and 90% (which corresponds to the linear part of the sigmoidal curve). The concentration corresponding to the half-maximal effect (50%) can readily be calculated using the parameters of the straight line. After washing and returning to the base line, the organ is placed in contact with the antagonist (8 different concentrations for each organ) for 20 minutes. A second effect/concentration curve is thus produced in the presence of the antagonist and the "treated" EC50 can then be calculated. This thus provides all the elements which allow the pA2 (competitive antagonism) or pD2 (non-competitive angatonism) to be calculated.
# Determination of the Non-Endothelium-Dependent Relaxations in Rabbit Saphene Vein
# Rabbit saphene veins are prepared and mounted as described in the above example. After stabilization, a contraction with KCl (60 mM) is induced. […] It is calculated as described in the above example.
# vascular TP-receptor = assay: Determination of the pA2 values of the antagonists towards TXA2 on rabbit saphene vein; parameters: species or system rabbit (New Zealand); settings: rabbit saphene vein rings, 37° C., U 46619 10^-9 M to 10^-5 M, antagonist 20 minutes
# Protocol: Determination of the pA2 Values of the Antagonists Towards TXA2 on Rabbit Saphene Vein
# as §1
# The physiological saline is bubbled with a mixture of 95% O2 /5% CO2. The lower hook constitutes the fixed point whereas the upper hook is connected to an isometric force sensor. The tissues are placed under a base tension of 1 gram. […]
# After mounting, the preparations are left to stand for 90 minutes, with rinsing carried out every 30 minutes. After readjustment of the base tension, a contraction by a single dose of the TXA2 agonist, U 46619 at 10^-5 M, is induced in order to regularize the following contractions. […]
# This EC50 is calculated routinely in the following way: the tension values are first converted into percentages relative to the maximum effect and these percentages are then plotted on a graph with the percentages on the Y-axis and the log (concentration) values on the X-axis. […] The concentration corresponding to the half-maximal effect (50%) can readily be calculated using the parameters of the straight line. […]
# [1] = test system: platelet aggregation induced by the TXA2 agonist, U 46619; assay: Platelet aggregation in man (platelet-rich plasma, induced by U 46619); assay type: cell-based; settings: human PRP, U 46619 0.3 μM, read-out: IC50, inhibition of platelet aggregation induced by U 46619
# Protocol: Platelet aggregation in man
# Venous blood is obtained from human volunteers who have not taken any aspirin for at least 14 days prior to the experiment. The blood is taken onto sodium citrate (0.109 M) (1 vol. of citrate by 9 vol. of blood). The platelet-rich plasma (PRP) is obtained after centrifugation (20° C.) at 200×g for 10 minutes. The number of platelets is, on average, 250,000 PL/mm^3. The PRP is stored at room temperature until the time of the test and is used within 2 hours of the blood being taken. The antagonists are tested according to the procedure described in Example 19, using U 46619 at a concentration of 0.3 μM.
SMILES,IC50 (Rabbit saphene vein) [µM],pA2 (vascular TP-receptor),IC50 [1] [µM],"inhibition of relaxations by guanylate cyclase inhibitor (in words) (Rabbit saphene vein; relaxations induced by the substances of the invention, ODQ)"
"O=C(O)CCc1c(CCO[N+](=O)[O-])ccc2c1CCC(NS(=O)(=O)c1ccc(Cl)cc1)C2 (stereo not shown) [Example 2, 3-{6-[(4-Chlorophenylsulfonyl)amino]-2-(2-nitroxyethyl)-5,6,7,8-tetrahydronaphth-1-yl}propionic acid]",10,9.5,0.14,
"O=C(O)CCc1c(CO[N+](=O)[O-])ccc2c1CCC(NS(=O)(=O)c1ccc(Cl)cc1)C2 (stereo not shown) [Example 4, 3-[6-(4-Chlorophenylsulfonyl)amino-2-nitroxymethyl-5,6,7,8-tetrahydronaphth-1-yl]propionic acid]",,,0.14,
"O=C(O)CCc1cc(CCO[N+](=O)[O-])cc2c1CCC(NS(=O)(=O)c1ccc(Cl)cc1)C2 (stereo not shown) [Example 6, 3-{6-[(4-Chlorophenylsulfonyl)amino]-3-(2-nitroxyethyl)-5,6,7,8-tetrahydronaphth-1-yl}propionic acid]",7.7,9.8,,
"O=c1onc2cnc3ccccc3n12 [ODQ, reference compound]",,,,capable of inhibiting relaxations
